COCC(=O)Nc1c(I)c(C(=O)NCC(O)CO)c(I)c(C(=O)N(C)CC(O)CO)c1I (stereo not given)
solubility (mole fraction) (in DMF, 273.15 K): 0.00368
solubility (mole fraction) (in DMF, 278.15 K): 0.0038
solubility (mole fraction) (in DMF, 283.15 K): 0.00394
solubility (mole fraction) (in DMF, 288.15 K): 0.00409
solubility (mole fraction) (in DMF, 293.15 K): 0.00427
solubility (mole fraction) (in DMF, 298.15 K): 0.00446
solubility (mole fraction) (in DMF, 303.15 K): 0.00467
solubility (mole fraction) (in DMF, 308.15 K): 0.0049
solubility (mole fraction) (in DMF, 313.15 K): 0.00517
solubility (mole fraction) (in DMF, 318.15 K): 0.00544
solubility (mole fraction) (in acetone, 273.15 K): 3.54e-05
solubility (mole fraction) (in acetone, 278.15 K): 4.29e-05
solubility (mole fraction) (in acetone, 283.15 K): 5.29e-05
solubility (mole fraction) (in acetone, 288.15 K): 6.52e-05
solubility (mole fraction) (in acetone, 293.15 K): 7.88e-05
solubility (mole fraction) (in acetone, 298.15 K): 9.34e-05
solubility (mole fraction) (in acetone, 303.15 K): 0.00011
solubility (mole fraction) (in acetone, 308.15 K): 0.000128
solubility (mole fraction) (in acetone, 313.15 K): 0.000149
solubility (mole fraction) (in acetone, 318.15 K): 0.000171
solubility (mole fraction) (in ethanol, 273.15 K): 0.000152
solubility (mole fraction) (in ethanol, 278.15 K): 0.000178
solubility (mole fraction) (in ethanol, 283.15 K): 0.000215
solubility (mole fraction) (in ethanol, 288.15 K): 0.000254
solubility (mole fraction) (in ethanol, 293.15 K): 0.000296
solubility (mole fraction) (in ethanol, 298.15 K): 0.000339
solubility (mole fraction) (in ethanol, 303.15 K): 0.000384
solubility (mole fraction) (in ethanol, 308.15 K): 0.000437
solubility (mole fraction) (in ethanol, 313.15 K): 0.000495
solubility (mole fraction) (in ethanol, 318.15 K): 0.000558
solubility (mole fraction) (in ethyl acetate, 273.15 K): 1.36e-05
solubility (mole fraction) (in ethyl acetate, 278.15 K): 2.01e-05
solubility (mole fraction) (in ethyl acetate, 283.15 K): 2.74e-05
solubility (mole fraction) (in ethyl acetate, 288.15 K): 3.57e-05
solubility (mole fraction) (in ethyl acetate, 293.15 K): 4.52e-05
solubility (mole fraction) (in ethyl acetate, 298.15 K): 5.65e-05
solubility (mole fraction) (in ethyl acetate, 303.15 K): 6.84e-05
solubility (mole fraction) (in ethyl acetate, 308.15 K): 8.46e-05
solubility (mole fraction) (in ethyl acetate, 313.15 K): 0.000101
solubility (mole fraction) (in ethyl acetate, 318.15 K): 0.000127
solubility (mole fraction) (in isopropanol, 273.15 K): 5.1e-05
solubility (mole fraction) (in isopropanol, 278.15 K): 6.23e-05
solubility (mole fraction) (in isopropanol, 283.15 K): 7.52e-05
solubility (mole fraction) (in isopropanol, 288.15 K): 9.01e-05
solubility (mole fraction) (in isopropanol, 293.15 K): 0.000108
solubility (mole fraction) (in isopropanol, 298.15 K): 0.000128
solubility (mole fraction) (in isopropanol, 303.15 K): 0.00015
solubility (mole fraction) (in isopropanol, 308.15 K): 0.000177
solubility (mole fraction) (in isopropanol, 313.15 K): 0.000203
solubility (mole fraction) (in isopropanol, 318.15 K): 0.000233
solubility (mole fraction) (in methanol, 273.15 K): 0.000236
solubility (mole fraction) (in methanol, 278.15 K): 0.000282
solubility (mole fraction) (in methanol, 283.15 K): 0.000349
solubility (mole fraction) (in methanol, 288.15 K): 0.000419
solubility (mole fraction) (in methanol, 293.15 K): 0.000496
solubility (mole fraction) (in methanol, 298.15 K): 0.000576
solubility (mole fraction) (in methanol, 303.15 K): 0.000666
solubility (mole fraction) (in methanol, 308.15 K): 0.00077
solubility (mole fraction) (in methanol, 313.15 K): 0.00088
solubility (mole fraction) (in methanol, 318.15 K): 0.000997
solubility (mole fraction) (in toluene, 273.15 K): 9.9e-06
solubility (mole fraction) (in toluene, 278.15 K): 1.08e-05
solubility (mole fraction) (in toluene, 283.15 K): 1.19e-05
solubility (mole fraction) (in toluene, 288.15 K): 1.31e-05
solubility (mole fraction) (in toluene, 293.15 K): 1.43e-05
solubility (mole fraction) (in toluene, 298.15 K): 1.56e-05
solubility (mole fraction) (in toluene, 303.15 K): 1.69e-05
solubility (mole fraction) (in toluene, 308.15 K): 1.83e-05
solubility (mole fraction) (in toluene, 313.15 K): 1.97e-05
solubility (mole fraction) (in toluene, 318.15 K): 2.12e-05
